In one test the target is human CB2 receptors (Homo sapiens (Human), UniProt P34972). The experiment in a line: cAMP assay, CHO cells expressing human CB2 receptors. Type of test: cell-based. As to conditions: functional cAMP assay, read-out: CB2 hcAMP EC50. How it is done:
(§1) CHO cells expressing human CB1 or CB2 receptors are seeded 17-24 hours prior to the experiment 50.000 cells per well in a black 96 well plate with flat clear bottom (Corning Costar #3904) in DMEM (Invitrogen No. 31331), 1×HT supplement, with 10% fetal calf serum and incubated at 5% CO2 and 37° C. in a humidified incubator. The growth medium was exchanged with Krebs Ringer Bicarbonate buffer with 1 mM IBMX and incubated at 30° C. for 30 min. Compounds were added to a final assay volume of 100 μl and incubated for 30 min at 30° C. Using the cAMP-Nano-TRF detection kit the assay (Roche Diagnostics) was stopped by the addition of 50 μl lysis reagent (Tris, NaCl, 1.5% Triton X100, 2.5% NP40, 10% NaN3) and 50 μl detection solutions (20 μM mAb Alexa700-cAMP 1:1, and 48 μM Ruthenium-2-AHA-cAMP) and shaken for 2 h at room temperature. The time-resolved energy transfer is measured by a TRF reader (Evotec Technologies GmbH), equipped with a ND:YAG laser as excitation source. The plate is measured twice with the excitation at 355 nm and at the emission with a delay of 100 ns and a gate of 100 ns, total exposure time 10 s at 730 (bandwidth 30 nm) or 645 nm (bandwidth 75 nm), respectively. The FRET signal is calculated as follows: FRET=T730-Alexa730-P(T645-B645) with P=Ru730-B730/Ru645-B645, where T730 is the test well measured at 730 nM, T645 is the test well measured at 645 nm, B730 and B645 are the buffer controls at 730 nm and 645 nm, respectively. cAMP content is determined from the function of a standard curve spanning from 10 μM to 0.13 nM cAMP.
(§2) EC50 values were determined using Activity Base analysis (ID Business Solution, Limited). The EC50 values for a wide range of cannabinoid agonists generated from this assay were in agreement with the values published in the scientific literature.

The next test concerns the target human CB1 receptors (Homo sapiens (Human), UniProt P21554). Put plainly: cAMP assay, CHO cells expressing human CB1 receptors. Type of test: cell-based. How it is done: as §1, §2
The mark [1] stands for this setting: functional cAMP assay, CHO cells expressing human CB1, read-out: CB1 hcAMP EC50.

Like-named read-outs stand apart in the source and are kept apart here.

Chain of human CB1 receptors (P21554 whole entry): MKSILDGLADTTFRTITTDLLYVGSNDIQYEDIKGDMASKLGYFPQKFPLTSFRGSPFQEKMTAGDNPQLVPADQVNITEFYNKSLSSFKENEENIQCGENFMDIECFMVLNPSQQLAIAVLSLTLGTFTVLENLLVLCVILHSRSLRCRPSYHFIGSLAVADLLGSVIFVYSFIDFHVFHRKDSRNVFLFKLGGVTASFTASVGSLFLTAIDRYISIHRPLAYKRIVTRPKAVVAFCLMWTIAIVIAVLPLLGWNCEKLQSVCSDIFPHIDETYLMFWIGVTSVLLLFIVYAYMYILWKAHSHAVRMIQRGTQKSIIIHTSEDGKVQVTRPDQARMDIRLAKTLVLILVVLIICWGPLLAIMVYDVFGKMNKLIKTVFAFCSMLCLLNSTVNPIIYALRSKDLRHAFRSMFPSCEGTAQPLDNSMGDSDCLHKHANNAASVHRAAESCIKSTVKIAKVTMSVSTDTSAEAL
Chain of human CB2 receptors (P34972 whole entry): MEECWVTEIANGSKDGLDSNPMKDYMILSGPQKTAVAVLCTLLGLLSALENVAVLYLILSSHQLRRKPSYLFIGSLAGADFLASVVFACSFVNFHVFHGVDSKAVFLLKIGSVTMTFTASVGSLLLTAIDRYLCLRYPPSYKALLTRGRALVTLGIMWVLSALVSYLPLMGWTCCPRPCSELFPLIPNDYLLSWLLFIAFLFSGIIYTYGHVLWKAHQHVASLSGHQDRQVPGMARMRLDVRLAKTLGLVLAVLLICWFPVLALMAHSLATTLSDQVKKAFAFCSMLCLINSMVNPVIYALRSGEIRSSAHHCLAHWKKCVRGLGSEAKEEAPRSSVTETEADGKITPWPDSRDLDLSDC

The term EC50 denotes the concentration that produces a half-maximal response. In the case of `CC(C)(C)c1nc2c(nnn2Cc2ccccc2Cl)c([C@]2(O)C[C@H](C(F)F)C2)n1` [Example 40, Trans-1-[5-tert-Butyl-3-[(2-chlorophenyl)methyl]triazolo[4,5-d]pyrimidin-7-yl]-3-(difluoromethyl)cyclobutanol], the EC50 amounted to 9.8 nM at human CB2 receptors and 1810 nM on human CB1 receptors (setting [1]).
On the same counts, the results for `Cn1nnnc1Cn1nnc2c(-c3cn[nH]c3)nc(C(C)(C)C)nc21` [Example 25, 5-tert-butyl-3-[(1-methyltetrazol-5-yl)methyl]-7-(1H-pyrazol-4-yl)triazolo[4,5-d]pyrimidine] are 32 nM and above 10000 nM.
Turning to `CC(C)(C)c1nc(-c2ccc(Cl)cc2F)c2nnn(Cc3ccccc3Cl)c2n1` [Example 5, 5-tert-butyl-7-(4-chloro-2-fluorophenyl)-3-[(2-chlorophenyl)methyl]triazolo[4,5-d]pyrimidine], the EC50 on human CB2 receptors is 88.2 nM; on human CB1 receptors (setting [1]), above 10000 nM.
Turning to `Cn1nccc1-c1nc(C(C)(C)C)nc2c1nnn2Cc1ccccc1S(C)(=O)=O` [Example 12, 5-tert-butyl-7-(2-methylpyrazol-3-yl)-3-[(2-methylsulfonylphenyl)methyl]triazolo[4,5-d]pyrimidine], the EC50 at human CB2 receptors was 3 nM; at human CB1 receptors (setting [1]), above 10000 nM.
With `Cn1nccc1-c1nc(C(C)(C)C)nc2c1nnn2CC(O)CC(F)(F)F` (stereo not drawn) [Example 16, 1-[5-tert-butyl-7-(2-methylpyrazol-3-yl)triazolo[4,5-d]pyrimidin-3-yl]-4,4,4-trifluorobutan-2-ol], the EC50 at human CB2 receptors is 42.4 nM; at human CB1 receptors (setting [1]), above 10000 nM.
In the case of `CC(C)(C)c1nc(C2CCCC2)c2nnn(Cc3ccccc3Cl)c2n1` [Example 45a, 5-tert-Butyl-3-[(2-chlorophenyl)methyl]-7-cyclopentyl-triazolo[4,5-d]pyrimidine], the EC50 at human CB2 receptors was 94.4 nM; on human CB1 receptors (setting [1]), above 10000 nM.
In the case of `CC(C)(C)c1nc2c(nnn2Cc2ccccc2Cl)c([C@]2(O)C[C@@H](C(F)F)C2)n1` [Example 41, Cis-1-[5-tert-Butyl-3-[(2-chlorophenyl)methyl]triazolo[4,5-d]pyrimidin-7-yl]-3-(difluoromethyl)cyclobutanol], the EC50 at human CB2 receptors was 30.5 nM; on human CB1 receptors (setting [1]), above 10000 nM.
On the same counts, the results for `Cn1nccc1-c1nc(C(C)(C)C)nc2c1nnn2Cc1ccccc1Cl` [Example 9, 5-tert-butyl-3-[(2-chlorophenyl)methyl]-7-(2-methylpyrazol-3-yl)triazolo[4,5-d]pyrimidine] are 44.3 nM and above 10000 nM.
`CC(C)(C)c1nc(C2(F)CCC2)c2nnn(Cc3ccccc3)c2n1` [Example 32, 3-Benzyl-5-tert-butyl-7-(1-fluorocyclobutyl)triazolo[4,5-d]pyrimidine]: the EC50 at human CB2 receptors was 24 nM; on human CB1 receptors (setting [1]) it was above 10000 nM.
On the same counts, the results for `CC(C)(C)c1nc(C2(O)C[S+]([O-])C2)c2nnn(Cc3ccccc3Cl)c2n1` (stereo not drawn) [Example 42, 3-[5-tert-Butyl-3-[(2-chlorophenyl)methyl]triazolo[4,5-d]pyrimidin-7-yl]-1-oxo-thietan-3-ol] are 110 nM and above 10000 nM.
The like results for `Cc1nnc(Cn2nnc3c(-c4ccnn4C)nc(C(C)(C)C)nc32)o1` [Example 15, 2-[[5-tert-butyl-7-(2-methylpyrazol-3-yl)triazolo[4,5-d]pyrimidin-3-yl]methyl]-5-methyl-1,3,4-oxadiazole] were, in that order, 317 nM and above 10000 nM.
For the compound `Cn1nccc1-c1nc(C(C)(C)C)nc2c1nnn2Cc1nnnn1C` [Example 13, 5-tert-butyl-7-(2-methylpyrazol-3-yl)-3-[(1-methyltetrazol-5-yl)methyl]triazolo[4,5-d]pyrimidine], the EC50 at human CB2 receptors is 33.3 nM; at human CB1 receptors (setting [1]) it was above 10000 nM.
Take `Cn1nccc1-c1nc(C(C)(C)C)nc2c1nnn2C1COC1` [Example 19, 5-tert-butyl-7-(2-methylpyrazol-3-yl)-3-(oxetan-3-yl)triazolo[4,5-d]pyrimidine]: the EC50 on human CB2 receptors was 190 nM; at human CB1 receptors (setting [1]), above 10000 nM.
With `CC(C)(C)c1nc(C2(O)CCCCCCC2)c2nnn(Cc3ccccc3Cl)c2n1` [Example 37, 1-[5-tert-Butyl-3-[(2-chlorophenyl)methyl]triazolo[4,5-d]pyrimidin-7-yl]cyclooctanol], the EC50 was 126 nM at human CB2 receptors and above 10000 nM on human CB1 receptors.
Consider `Cn1nccc1-c1nc(C(C)(C)C)nc2c1nnn2C[C@H](O)C(F)(F)F` [Example 17, (2S)-3-[5-tert-butyl-7-(2-methylpyrazol-3-yl)triazolo[4,5-d]pyrimidin-3-yl]-1,1,1-trifluoropropan-2-ol], for which the EC50 is 77.2 nM at human CB2 receptors and above 10000 nM on human CB1 receptors (setting [1]).

The values are drawn from patent US10183946B2, “Triazolo[4,5-D]pyrimidines” (Hoffmann—La Roche Inc., priority 2014, dated 2019).
